Results as given in ChEMBL document CHEMBL1201862, “PubChem BioAssay data set” (2004).
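Compound exposure: 48 hours, 5 concentrations, 96-well plates. GI50 is the concentration that inhibits growth by half.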 The source made the active and inactive calls. Rule as the data show it: active = GI50 up to about 1.1 µM and inactive = higher.

Key:
Assay in all cases: DTP human tumour cell line panel, 48 h
[1] = test system: SR
[2] = test system: SK-MEL-5
[3] = test system: MDA-MB-435
[4] = test system: SF-539
[5] = test system: M14
[6] = test system: RXF 393
[7] = test system: CAKI-1
[8] = test system: HOP-62
[9] = test system: NCI/ADR-RES
[10] = test system: PC-3
[11] = test system: SN12C
[12] = test system: HCT-15
[13] = test system: SF-268
[14] = test system: MDA-MB-231
[15] = test system: SNB-19
[16] = test system: OVCAR-4
[17] = test system: OVCAR-3
[18] = test system: CCRF-CEM
[19] = test system: SW-620
[20] = test system: A498

Structure (SMILES) | GI50 [1] | GI50 [2] | GI50 [3] | GI50 [4] | GI50 [5] | GI50 [6] | GI50 [7] | GI50 [8] | GI50 [9] | GI50 [10] | GI50 [11] | GI50 [12] [µM] | GI50 [13] | GI50 [14] | GI50 [15] | GI50 [16] | GI50 [17] | GI50 [18] | GI50 [19] | GI50 [20]
COc1ccc(/C=C2\CCc3cc(OC)c(OC)cc3C2=O)cc1 | > 10 µM (inactive) | > 10 µM (inactive) | > 10 µM (inactive) | > 10 µM (inactive) | > 10 µM (inactive) | > 10 µM (inactive) | > 10 µM (inactive) | > 10 µM (inactive) | > 10 µM (inactive) | > 10 µM (inactive) | > 10 µM (inactive) | > 10 | > 10 µM (inactive) | > 10 µM (inactive) | > 10 µM (inactive) | > 10 µM (inactive) | > 10 µM (inactive) | > 10 µM (inactive) | > 10 µM (inactive) | 
O=C(O)C1CCN(Cc2oc(CO)cc(=O)c2O)C1 (centres undefined) | > 100 µM (inactive) | > 100 µM (inactive) | > 100 µM (inactive) |  | > 100 µM (inactive) | > 100 µM (inactive) | > 100 µM (inactive) | > 100 µM (inactive) | > 100 µM (inactive) | > 100 µM (inactive) | > 100 µM (inactive) | > 100 | > 100 µM (inactive) | > 100 µM (inactive) | > 100 µM (inactive) | > 100 µM (inactive) | > 100 µM (inactive) | > 100 µM (inactive) | > 100 µM (inactive) | > 100 µM (inactive)
CC(C)CC(NC=O)C(=O)NC(Cc1ccccc1)NC(=O)CNC(=O)C(C)NC(=O)C(N)Cc1ccc(O)cc1 (centres undefined) | > 100 µM (inactive) | > 100 µM (inactive) | > 100 µM (inactive) | > 100 µM (inactive) | > 100 µM (inactive) | > 100 µM (inactive) | > 100 µM (inactive) | > 100 µM (inactive) | > 100 µM (inactive) | > 100 µM (inactive) | > 100 µM (inactive) | > 100 | > 100 µM (inactive) | > 100 µM (inactive) | > 100 µM (inactive) | 91.8 µM (inactive) | > 100 µM (inactive) |  | > 100 µM (inactive) | 64.6 µM (inactive)
CCCCCCCCCCCCCCCCCCOc1ccc(/C=C/C2=[N+](CCCl)CCO2)cc1 | 30.9 µM (inactive) | > 100 µM (inactive) | > 100 µM (inactive) | > 100 µM (inactive) | > 100 µM (inactive) |  | > 100 µM (inactive) | > 100 µM (inactive) | > 100 µM (inactive) | > 100 µM (inactive) | > 100 µM (inactive) | > 100 |  | 41 µM (inactive) | > 100 µM (inactive) | > 100 µM (inactive) | > 100 µM (inactive) | > 100 µM (inactive) | > 100 µM (inactive) | > 100 µM (inactive)
Cc1ccc(S(=O)(=O)SC(C)(C)C)cc1 | 12.2 µM (inactive) | 46.1 µM (inactive) | 31.4 µM (inactive) | 32.1 µM (inactive) | 31.6 µM (inactive) |  | 22.2 µM (inactive) | > 60.3 µM (inactive) | 32.6 µM (inactive) | > 10 µM (inactive) | 38.9 µM (inactive) | 23.4 | 45.5 µM (inactive) | 24.7 µM (inactive) | > 100 µM (inactive) | 22.2 µM (inactive) | 20.9 µM (inactive) | 12.6 µM (inactive) | 22.2 µM (inactive) | > 100 µM (inactive)
C[C@@H](CO)C1=CC(C#C[Si](C)(C)C)N(C(=O)Oc2ccccc2)c2ccccc21 (some centres undefined) | 5.65 µM (inactive) | 16 µM (inactive) | 3.45 µM (inactive) | 17.8 µM (inactive) | 16.3 µM (inactive) | 5.86 µM (inactive) | 24 µM (inactive) | 15 µM (inactive) | 11.8 µM (inactive) | 19.6 µM (inactive) | 16.8 µM (inactive) | 6.37 | 16.5 µM (inactive) | 17.7 µM (inactive) | 27.2 µM (inactive) | 12.6 µM (inactive) | 13.2 µM (inactive) | 20.4 µM (inactive) | 24 µM (inactive) | 
C=CCCC1(CCP(=O)(c2ccccc2)c2ccccc2)OCCO1 | > 100 µM (inactive) | > 100 µM (inactive) | > 100 µM (inactive) | > 100 µM (inactive) | > 100 µM (inactive) | > 100 µM (inactive) |  | > 100 µM (inactive) | > 100 µM (inactive) | > 100 µM (inactive) | > 100 µM (inactive) | > 100 | > 100 µM (inactive) | > 100 µM (inactive) | > 100 µM (inactive) |  | > 100 µM (inactive) | > 100 µM (inactive) | > 100 µM (inactive) | 
COc1c(C)c(C/C=C(\C)CC/C=C(\C)CCC=C(C)C)c(OC)c(OC)c1OC | 66.4 µM (inactive) | 74.5 µM (inactive) | 21.5 µM (inactive) | > 100 µM (inactive) | > 100 µM (inactive) | 44 µM (inactive) | > 100 µM (inactive) | > 100 µM (inactive) | > 100 µM (inactive) | > 100 µM (inactive) | > 100 µM (inactive) | > 100 | > 100 µM (inactive) | > 100 µM (inactive) | > 100 µM (inactive) | > 100 µM (inactive) | > 100 µM (inactive) | 56.5 µM (inactive) | > 100 µM (inactive) | 
CC(O)[C@@]1(c2ccccc2)CC2(CCN(C)CC2)O[C@H]1C (some centres undefined) | > 100 µM (inactive) | 61.2 µM (inactive) | > 100 µM (inactive) | > 100 µM (inactive) | > 100 µM (inactive) | > 100 µM (inactive) | > 100 µM (inactive) | > 100 µM (inactive) | > 100 µM (inactive) | > 100 µM (inactive) |  | > 100 | > 100 µM (inactive) | > 100 µM (inactive) | > 100 µM (inactive) | 98.6 µM (inactive) | > 100 µM (inactive) | 0.465 µM (active) | > 100 µM (inactive) | > 100 µM (inactive)
CC1(C)c2ccccc2C(O)C12CCC(=O)CC2 (centres undefined) | > 100 µM (inactive) | > 100 µM (inactive) | > 100 µM (inactive) | > 100 µM (inactive) | > 100 µM (inactive) | 14.5 µM (inactive) |  | > 100 µM (inactive) | > 100 µM (inactive) | > 100 µM (inactive) | > 100 µM (inactive) | > 100 | > 100 µM (inactive) | > 100 µM (inactive) | > 100 µM (inactive) | > 100 µM (inactive) | > 100 µM (inactive) |  | > 100 µM (inactive) | > 100 µM (inactive)
O=C(O)CCC(c1ccccc1)(c1ccccc1)c1ccccc1 | 31.6 µM (inactive) | 32 µM (inactive) | 33 µM (inactive) | 33.3 µM (inactive) | 33 µM (inactive) |  |  | 34.8 µM (inactive) | 36.5 µM (inactive) | 33 µM (inactive) | 38.9 µM (inactive) | 29.2 | 24.5 µM (inactive) | 43.6 µM (inactive) | 42.3 µM (inactive) | 34.5 µM (inactive) | 14.7 µM (inactive) | 64.3 µM (inactive) | 39.8 µM (inactive) | 41.4 µM (inactive)
CC(=O)C(C(C)=O)[C@@H]1OC(C)(C)O[C@@H]1[C@H]1COC(C)(C)O1 | 38.8 µM (inactive) | 47.8 µM (inactive) | 38.7 µM (inactive) | > 100 µM (inactive) | 47.4 µM (inactive) | 51.8 µM (inactive) | 53.2 µM (inactive) | 45.9 µM (inactive) | 55.6 µM (inactive) | 43.6 µM (inactive) | 20.8 µM (inactive) | 41.5 | 30.1 µM (inactive) | > 100 µM (inactive) | 64.1 µM (inactive) | 51.1 µM (inactive) | 62.8 µM (inactive) |  | 36.6 µM (inactive) | 93.3 µM (inactive)
Cc1[nH]n(-c2nc(O)c(-c3ccccc3)c(=O)[nH]2)c(=O)c1CCO | > 100 µM (inactive) | > 100 µM (inactive) | > 100 µM (inactive) | > 100 µM (inactive) | > 100 µM (inactive) | > 100 µM (inactive) | > 100 µM (inactive) |  | > 100 µM (inactive) | > 100 µM (inactive) | > 100 µM (inactive) | > 100 | > 100 µM (inactive) | > 100 µM (inactive) | > 100 µM (inactive) | > 100 µM (inactive) |  | > 100 µM (inactive) | > 100 µM (inactive) | > 100 µM (inactive)
N#C[BH2-][n+]1cn(C2CC(OP(=O)(O)OCC3OC(n4cnc5c(=O)[nH]c(N)nc54)CC3O)C(CO)O2)c2nc(N)[nH]c(=O)c21 (centres undefined) | > 100 µM (inactive) | > 100 µM (inactive) | > 100 µM (inactive) | > 100 µM (inactive) |  | > 100 µM (inactive) | > 100 µM (inactive) | > 100 µM (inactive) | > 100 µM (inactive) | > 100 µM (inactive) | > 100 µM (inactive) | > 100 | 44.4 µM (inactive) | > 100 µM (inactive) | > 100 µM (inactive) | > 100 µM (inactive) | > 100 µM (inactive) | 37.8 µM (inactive) | > 100 µM (inactive) | > 100 µM (inactive)
C=C(C)[C@@H]1CC[C@]2(CO)CC[C@]3(C)[C@H](CC[C@@H]4[C@@]5(C)CC[C@H](O)C(C)(C)[C@@H]5CC[C@]43C)[C@@H]12 [BETULIN] | 43 µM (inactive) | 19.7 µM (inactive) | 19.5 µM (inactive) | 11.7 µM (inactive) | 51.1 µM (inactive) | 10.3 µM (inactive) | 15.3 µM (inactive) | 16.7 µM (inactive) | 30.4 µM (inactive) | 30.2 µM (inactive) | 24.8 µM (inactive) | 42.6 | 25.1 µM (inactive) | 33.3 µM (inactive) | > 10 µM (inactive) |  | 28.2 µM (inactive) | 34.5 µM (inactive) | 20.1 µM (inactive) | 21.5 µM (inactive)
